Laboratory results taken from US9365571B2, “Piperidino-pyrimidine derivatives for the treatment of viral infections” (Janssen Sciences Ireland UC, priority 2012, dated 2016).

What was measured:
Type in all cases: cell-based
human TLR7 = experiment: TLR7 cellular NFκB-luc reporter assay in transiently transfected HEK293 cells; settings: lowest effective concentration, 6 hours incubation
Experimental: (§1) The ability of compounds to activate human TLR7 and/or TLR8 was assessed in a cellular reporter assay using HEK293 cells transiently transfected with a TLR7 or TLR8 expression vector and NFκB-luc reporter construct. In one instance the TLR expression construct expresses the respective wild type sequence or a mutant sequence comprising a deletion in the second leucine-rich repeat of the TLR.
(§2) Briefly, HEK293 cells were grown in culture medium (DMEM supplemented with 10% FCS and 2 mM Glutamine). For transfection of cells in 10 cm dishes, cells were detached with Trypsin-EDTA, transfected with a mix of CMV-TLR7 or TLR8 plasmid (750 ng), NFκB-luc plasmid (375 ng) and a transfection reagent and incubated overnight at 37° C. in a humidified 5% CO2 atmosphere. Transfected cells were then detached with Trypsin-EDTA, washed in PBS and resuspended in medium to a density of 1.67×10^5 cells/mL. Thirty microliters of cells were then dispensed into each well in 384-well plates, where 10 μL of compound in 4% DMSO was already present. Following 6 hours incubation at 37° C., 5% CO2, the luciferase activity was determined by adding 15 μl of Steady Lite Plus substrate (Perkin Elmer) to each well and readout performed on a ViewLux ultraHTS microplate imager (Perkin Elmer). Dose response curves were generated from measurements performed in quadruplicates. Lowest effective concentrations (LEC) values, defined as the concentration that induces an effect which is at least two fold above the standard deviation of the assay, were determined for each compound.

human TLR8 = experiment: TLR8 cellular NFκB-luc reporter assay in transiently transfected HEK293 cells; settings: lowest effective concentration, 6 hours incubation
Experimental: as §1, §2

PBMC-IFNa = experiment: PBMC-IFNa; settings: Table IIC; lowest effective concentration; read-out: PBMC-IFNa (LEC)

Compound	Human TLR7 (LEC, μM) (human TLR7; Table II A) [µM]	Human TLR8 (LEC, μM) (human TLR8; Table II A) [µM]	Human TLR7 (LEC, μM) (human TLR7; Table IIC) [µM]	Human TLR8 (LEC, μM) (human TLR8; Table IIC) [µM]	minimal effective concentration (PBMC-IFNa) [µM]	Human TLR7 (LEC, μM) (human TLR7; Table II B) [µM]	Human TLR8 (LEC, μM) (human TLR8; Table II B) [µM]
CCCCNc1nc(N)nc2c1CCN(C(=O)c1sccc1Cl)C2 [Compound 20]	7.15	0.68					
CCCCNc1nc(N)nc2c1CCN(C(=O)C1CCOCC1)C2 [Compound 29]			>25	7.5	8.7		
CCCCNc1nc(N)nc2c1CCN(C(=O)COC)C2 [Compound 16]	5.37	1.49					
CCC[C@@H](CCO)Nc1nc(N)nc2c1CCN(C(=O)c1cccn1C)C2 [Compound 49]			2.7	4.0	0.3		
CCCCNc1nc(N)nc2c1CN(C(=O)C1CCOCC1)CC2 [Compound 31]			7.7	0.6	1.3		
CCCC[C@@H](CCO)Nc1nc(N)nc2c1CN(C(=O)c1ccccc1)CC2 [Compound 48]			1.2	3.9	0.3		
CCC[C@@H](CCO)Nc1nc(N)nc2c1CN(C(=O)c1cscn1)CC2 [Compound 40]			2.2	4.5	0.2		
CCC[C@@H](CCO)Nc1nc(N)nc2c1CCN(C(=O)c1ccncc1)C2 [Compound 52]			12.1	15			
CCCC[C@@H](CCO)Nc1nc(N)nc2c1CCN(C(=O)c1cccn1C)C2 [Compound 50]			1.7	3.9	0.3		
CCCCNc1nc(N)nc2c1CCN(C(=O)c1cscn1)C2 [Compound 14]	4.43	0.90					
CCCC[C@@H](CCO)Nc1nc(N)nc2c1CN(C(=O)c1cccn1C)CC2 [Compound 51]			0.5	0.4	0.1		
CCCCNc1nc(N)nc2c1CCN(C(=O)C1CCC1)C2 [Compound 11]	2.10	0.51					
CCCCNc1nc(N)nc2c1CCN(C(=O)c1ccsc1)C2 [Compound 21]	8.13	1.85					
CCCCNc1nc(N)nc2c1CCN(C(=O)c1csnn1)C2 [Compound 27]			>25	1.9	1.2		
CCCCNc1nc(N)nc2c1CCN(C(=O)c1ccccc1)C2 [Compound 2]	3.96	0.75					
CCCCNc1nc(N)nc2c1CN(C(=O)c1ccsc1)CC2 [Compound 33]			0.3	0.2	0.2		
CCCCNc1nc(N)nc2c1CCN(C(=O)CC(F)(F)F)C2 [Compound 24]	12.93	2.29					
CCCC[C@@H](CCO)Nc1nc(N)nc2c1CN(C(=O)c1csc(C)n1)CC2 [Compound 44]			1.0	6.6	0.2		
CCCC[C@@H](CCO)Nc1nc(N)nc2c1CN(C(=O)c1ccco1)CC2 [Compound 43]			0.1	0.7	0.04		
CCCC[C@@H](CCO)Nc1nc(N)nc2c1CN(C(=O)c1cscn1)CC2 [Compound 46]			0.6	3.5	0.2		
CCCCNc1nc(N)nc2c1CCN(C(C)=O)C2 [Compound 17]	5.82	0.43					
CCCCNc1nc(N)nc2c1CCN(C(=O)c1cocn1)C2 [Compound 36]			4.7	0.9	0.6		
CCCCNc1nc(N)nc2c1CCN(C(=O)c1cc(C)n(C)n1)C2 [Compound 10]	2.04	0.71					
CCCCNc1nc(N)nc2c1CN(C(=O)c1cc(C)on1)CC2 [Compound 34]			0.8	0.4	0.2		
CCCCNc1nc(N)nc2c1CCN(C(=O)C(C)C)C2 [Compound 13]	3.21	0.85					
CCCCNc1nc(N)nc2c1CCN(C(=O)[C@@H](N)C(C)C)C2 [Compound 25]			20.0	1.8	1.1		

Compound	Human TLR7 (LEC, μM) (human TLR7; Table II A) [µM]	Human TLR8 (LEC, μM) (human TLR8; Table II A) [µM]	Human TLR7 (LEC, μM) (human TLR7; Table IIC) [µM]	Human TLR8 (LEC, μM) (human TLR8; Table IIC) [µM]	minimal effective concentration (PBMC-IFNa) [µM]	Human TLR7 (LEC, μM) (human TLR7; Table II B) [µM]	Human TLR8 (LEC, μM) (human TLR8; Table II B) [µM]
CCC[C@@H](CCO)Nc1nc(N)nc2c1CN(C(=O)c1ccccc1)CC2 [Compound 39]			2.5	4.2	0.5		
CCCCNc1nc(N)nc2c1CCN(C(=O)c1ccccn1)C2 [Compound 19]	6.59	0.83					
CCCCNc1nc(N)nc2c1CCN(C(=O)c1nccc3ccccc13)C2 [Compound 37]			7.2	1.7	1.8		
CCCCNc1nc(N)nc2c1CN(C(=O)C1CCC1)CC2 [Compound 1]						0.83	0.32
CCCCNc1nc(N)nc2c1CCN(C(=O)CC)C2 [Compound 30]			5.0	0.5	0.5		
CCCCNc1nc(N)nc2c1CN(C(=O)c1cocn1)CC2 [Compound 35]			0.7	0.2	0.2		
CCCCNc1nc(N)nc2c1CN(C(=O)Cc1cccs1)CC2 [Compound 6]						3.45	0.88
CCCCNc1nc(N)nc2c1CN(C(=O)C(C)C)CC2 [Compound 7]						8.13	1.62
CCCCNc1nc(N)nc2c1CCN(C(=O)c1csc(N)n1)C2 [Compound 15]	4.66	1.31					
CCCCNc1nc(N)nc2c1CCN(C(=O)c1ccncc1)C2 [Compound 28]			8.6	2.2	1.9		
CCC[C@@H](CCO)Nc1nc(N)nc2c1CN(C(=O)c1ccco1)CC2 [Compound 41]			0.4	0.4	0.1		
CCCC[C@@H](CCO)Nc1nc(N)nc2c1CN(C(=O)c1cccs1)CC2 [Compound 45]			0.2	1.7	0.2		
CCCCNc1nc(N)nc2c1CCN(C(=O)c1cc(C)on1)C2 [Compound 38]			5.2	0.8	0.6		
CCC[C@@H](CCO)Nc1nc(N)nc2c1CN(C(=O)c1csc(C)n1)CC2 [Compound 42]			2.2	2.1	0.2		
CCCCNc1nc(N)nc2c1CN(C(C)=O)CC2 [Compound 5]						4.90	0.50
CCC[C@@H](CCO)Nc1nc(N)nc2c1CN(C(=O)c1cccs1)CC2 [Compound 47]			0.2	1.1	0.2		
CCCCNc1nc(N)nc2c1CCN(C(=O)CC#N)C2 [Compound 23]	11.62	2.67					
CCCCNc1nc(N)nc2c1CCN(C(=O)Cc1cccs1)C2 [Compound 9]	1.60	0.46					
CCCCNc1nc(N)nc2c1CCN(C(=O)C1CC1)C2 [Compound 4]	6.82	0.47					
CCCCNc1nc(N)nc2c1CCN(C(=O)[C@H](C)N)C2 [Compound 26]			16.8	2.1	0.6		
CCCCNc1nc(N)nc2c1CN(C(=O)CC)CC2 [Compound 8]						2.34	0.40
CCCCNc1nc(N)nc2c1CCN(C(=O)c1cccs1)C2 [Compound 12]	2.40	0.36					
CCCCNc1nc(N)nc2c1CCN(C(=O)c1nccn1C)C2 [Compound 18]	6.16	0.96					
CCCCNc1nc(N)nc2c1CCN(C(=O)c1cnccn1)C2 [Compound 22]	9.35	1.37					
CCCCNc1nc(N)nc2c1CCN(C(=O)c1cccn1C)C2 [Compound 3]	0.79	0.60					
CCCCNc1nc(N)nc2c1CN(C(=O)CC#N)CC2 [Compound 32]			7.1	0.6	0.9		
